Assay results: patent US4704393A, “1-substituted 5-fluorouracil useful for inhibiting the aggregation of platelets” (Terumo Kabushiki Kaisha, priority 1983, dated 1987)
Read-outs that look alike come from different tables or passages of the source.

Key:
P388 cells = assay: Chemotherapeutic function: life elongation ratio (ILS %) of mice intra-abdominally transplanted with P388 cells; settings: for toxicity compared with 5-FU in P388-bearing mice: 50 mg/kg/day (Example 1 compound), 70 mg/kg/day (Examples 2 and 3 compounds); for chemotherapeutic function compared with 5-FU: P388 mice, Tables 1 and 2; for ILS (%) / Incremental Life Support ILS (%): intra-abdominal, once daily; for Incremental Life Support ILS (%): five consecutive days
Text: To CDFl mice (males five weeks old), 1×10^6 P388 cells/mouse were intra-abdominally transplanted.
By following the procedure described above, each suspension of 0.5% of 1-(5,8,11,14,17-eicosapentaenoyloxy-meyhyl)-5-fluorouracil of Example 2 and 0.5% of 1-(4,7,10,13,16,19-docosahexenoyloxymethyl)-5-fluorouracil of Example 3 in carboxymethyl celloulose was intra-abdominally administered once daily to other mice of the same description to test for life elongation ratio.

[1] = system: platelet aggregation induced by the arachidonic acid; assay: Platelet aggregation inhibition in rabbit PRP, induced by arachidonic acid; type: cell-based; settings: Oryctolagus cuniculus
Text: (§1) With a syringe containing an aqueous 3.8% sodium citrate solution (one volume), blood (nine volumes) was collected from a rabbit through the carotid artery. For this blood, blood plasma abounding with blood platelets (PRP: 500,000/μ1) was obtained by centrifugal separation. The compound of the present invention was used on the PRP, with arachidonic acid or collagen as a coagulation inducer, to test for […].
(§2) With a syringe containing an aqueous 3.8% sodium citrate solution (one volume), blood (nine volumes) was collected from a rabbit through the carotid artery. From this blood, blood plasma abounding with blood platelets (PRP: 400,000/μ) was obtained by centrifugal separation. The compound of the present invention was used on the PRP, with arachidonic acid or collagen as an aggregation inducer, to test for platelet aggregation inhibiting function.

[2] = system: platelet aggregation induced by collagen; assay: Platelet aggregation inhibition in rabbit PRP, induced by collagen; type: cell-based; settings: Oryctolagus cuniculus, collagen 25 μg/ml
Text: as §1, §2

in vivo = settings: mouse, ip
Text: To ICR mice (male, seven weeks old), 1-(9,12,15-octadecatrienoyloxymethyl)-5-fluorouracil, 1-(5,8,11,14,17-eicosapentaenoyloxymethyl)-5-fluorouracil, and 1-(4,7,10,13,16,19-docosahexenoyloxymethyl)-5-fluorouracil were intra-abdominally administered to test for acute toxicity.

[3] = arachidonic acid 80 μM, rabbit PRP 400,000/μ, read-out: 50% depression concentration (IC50) on platelet aggregation

Row | SMILES | toxicity compared with 5-FU in P388-bearing mice (P388 cells) | chemotherapeutic function compared with 5-FU (P388 cells) | ILS (%) (P388 cells; Table 2, 3 mg/kg/day) | ILS (%) (P388 cells; Table 2, 10 mg/kg/day) | ILS (%) (P388 cells; Table 2, 30 mg/kg/day) | ILS (%) (P388 cells; Table 2, 70 mg/kg/day) | ILS (%) (P388 cells; Table 2, 100 mg/kg/day) | IC50 [1, 3] | IC50 ([2]; rabbit PRP 400,000/μ) | LD50 (in vivo) | Incremental Life Support ILS (%) (P388 cells; Table 1, 5 mg/kg/day) | Incremental Life Support ILS (%) (P388 cells; Table 1, 10 mg/kg/day) | Incremental Life Support ILS (%) (P388 cells; Table 1, 20 mg/kg/day) | Incremental Life Support ILS (%) (P388 cells; Table 1, 30 mg/kg/day) | IC50 ([2]; rabbit PRP 500,000/μl) | further results
1 | CCC=CCC=CCC=CCC=CCC=CCCCC(=O)OCn1cc(F)c(=O)[nH]c1=O [1-(5,8,11,14,17-eicosapentaenoyloxymethyl)-5-flourouracil] | less toxic than 5-FU | equal to or better than the function of 5-FU | 18% | 27% | 40% | 36% | 19% | 120 µM | 710 µM | > 500 mg/kg | – | – | – | – | – | –
2 | CC/C=C\C/C=C\C/C=C\CCCCCCCC(=O)OCn1cc(F)c(=O)[nH]c1=O [1-(9,12,15-octadecatrienoyloxymethyl)-5-fluorouracil] | less toxic than 5-FU | equal to or better than the function of 5-FU | – | – | – | – | – | – | – | > 500 mg/kg | 23% | 52% | 71% | 64% | 34 µM | Incremental Life Support ILS (%) (P388 cells; Table 1, 50 mg/kg/day): 47%; Incremental Life Support ILS (%) (P388 cells; Table 1, 100 mg/kg/day): 7%; IC50 ([1]; arachidonic acid 70 μM, rabbit PRP 500,000/μl, read-out: 50% inhibition concentration (IC50) on platelet aggregation): 640 µM
3 | O=c1[nH]cc(F)c(=O)[nH]1 [Example 5-FU, 5-fluorouracil] | – | – | 20% | 38% | -8% | – | – | > 1000 µM | ≥ 1000 µM | – | 35% | 47% | 62% | -17% | 530 µM | days of survival compared with control group (P388 cells; 30 mg/kg/day): smaller numbers of days of survival on the mice treatd than the mice of the control group; inhibition at 1000 µM ([1]; arachidonic acid 70 μM, rabbit PRP 500,000/μl, at 1×10^-3 M): 4%; LD50 (in vivo; in vivo): 235 mg/kg
4 | CCC=CCC=CCC=CCC=CCC=CCC=CCCC(=O)OCn1cc(F)c(=O)[nH]c1=O [1-(4,7,10,13,16,19-docosahexenoyloxymethyl)-5-fluorouracil] | less toxic than 5-FU | equal to or better than the function of 5-FU | 17% | 34% | 47% | 30% | 22% | 54 µM | 90 µM | > 500 mg/kg | – | – | – | – | – | –
